The record followed here is patent US20230165865A1, “HETEROARYLDIHYDROPYRIMIDINE DERIVATIVES AND METHODS OF TREATING HEPATITIS B INFECTIONS” (Janssen Pharmaceutica NV, priority 2018, published 2023).

As usually defined, the EC50 is the concentration giving half of the maximal effect. What is called CC50 is the concentration at which the toxic effect on the cells reaches its halfway point. A high value points to lower toxicity to the cells.

For one series, the system named is HBV. Kind of series: Anti-viral assay in HepG2.2.15 cells: anti-HBV activity, HBV DNA in culture medium by qPCR. The conditions noted are these: Hepatitis B virus, HepG2.2.15, 144 h, HepG2.2.15 cells, 6 days treatment, HBV DNA by qPCR; read-out: EC50. In kind it is cell-based. On the procedure: (§1) HepG2.2.15 (the HepG2.2.15 cell line can be produced by transfection of the HepG2 cell line as described in Sells, Chen, and Acs 1987 (Proc. Natl. Acad. Sci. USA 84: 1005-1009), and the HepG2 cell line is available from ATCC® under number HB-8065™)
(§2) HepG2.2.15 cells were plated into 96-well plate in 2% FBS culture medium at the density of 40,000 cells/well and 5,000cells/well for HBV inhibitory activity and cytotoxicity determination, respectively. After incubation at 37° C., 5% CO2 overnight, cells were treated with medium containing compounds for 6 days with medium and compounds refreshed after 3 days of treatment. Each compound was tested in a 1:3 serial dilutions at 8 different concentrations in triplicate. The highest concentration of the compounds was 10 uM or 1 uM for anti-HBV activity assay and 100 uM for cytotoxicity determination.
The change of HBV DNA level induced by the compounds was assessed by quantitative real-time polymerase chain reaction (qPCR). Briefly, the HBV DNA in the culture medium was extracted using QIAamp 96 DNA Blood Kit according to the manual and then quantified by real-time PCR assay using the primers and probe in the table 1 below.
(§3) EC50 and CC50 values are calculated by the […] PRISM software.
On the technique in general: In qPCR the cycle at which signal appears reflects the starting amount.

Series [1] is described as follows: Cytotoxicity determination in HepG2.2.15 cells (CCK-8 assay). Format: cell-based. The conditions noted are these: human, 6 days treatment, CCK-8, highest concentration 100 uM. As to the method: as §1, §2
Cell viability was determined by CCK-8 assay. After 6 days of compounds treatment, 20 μl CCK-8 reagents were added to each well of cytotoxicity assay plates. Cell plates were incubated at 37° C., 5% CO2 for 2.5 h. The absorbance at 450 nm wavelength and the absorbance at 630 nm wavelength as reference was measured.
as §3
For orientation: Formazan colour is commonly taken as a measure of viable cells.

Take `COC(=O)C1=C(CN2CCN3C(=S)N(CC(C)(C)C(=O)O)C[C@@H]3C2)NC(c2nccs2)=N[C@H]1c1ccc(F)cc1Br` (single isomer, unassigned) [Compound 16B, 3-(7-((6-(2-Bromo-4-fluorophenyl)-5-(methoxycarbonyl)-2-(thiazol-2-yl)-3,6-dihydropyrimidin-4-yl)methyl)-3-thioxohexahydroimidazo[1,5-a]pyrazin-2(3H)-yl)-2,2-dimethylpropanoic acid]: in the series with HBV, the EC50 was 808 nM. In series [1], this molecule had a CC50 at 6 days of 29500 nM.
As for `CCOC(=O)C1=C(CN2CCN3C(=S)N(CC(C)(C)C(=O)O)C[C@@H]3C2)NC(c2nccs2)=N[C@H]1c1ccc(C)cc1F` (single isomer, unassigned) [Compound 25A, 3-(7-((5-(Ethoxycarbonyl)-6-(2-fluoro-4-methylphenyl)-2-(thiazol-2-yl)-3,6-dihydropyrimidin-4-yl)methyl)-3-thioxohexahydroimidazo[1,5-a]pyrazin-2(3H)-yl)-2,2-dimethylpropanoic acid], the concentration for a half-maximal effect (EC50) with HBV came to 91.6 nM. For the same molecule, in series [1], the CC50 at 6 days came to 31000 nM.
On to `CCOC(=O)C1=C(CN2CCN3C(=S)N(CC(C)(C)C(=O)O)CC3C2)NC(c2nccs2)=NC1c1ccc(F)c(F)c1Cl` (stereo not shown) [Compound 14, 3-(7-((6-(2-Chloro-3,4-difluorophenyl)-5-(ethoxycarbonyl)-2-(thiazol-2-yl)-3,6-dihydropyrimidin-4-yl)methyl)-3-thioxohexahydroimidazo[1,5-a]pyrazin-2(3H)-yl)-2,2-dimethylpropanoic acid], for which, in the series on HBV, the EC50 is 5.9 nM. In series [1], this molecule displayed a CC50 at 6 days of 10600 nM.
The matching figures for `CCOC(=O)C1=C(CN2CCN3C(=S)N(c4ccc(C(=O)O)cc4)CC3C2)NC(c2nccs2)=N[C@H]1c1cccc(F)c1C` (stereo in doubt) [Compound 23, 4-(7-((5-(ethoxycarbonyl)-6-(3-fluoro-2-methylphenyl)-2-(thiazol-2-yl)-3,6-dihydropyrimidin-4-yl)methyl)-3-thioxohexahydroimidazo[1,5-a]pyrazin-2(3H)-yl)benzoic acid]: 4.6 nM and 2600 nM.
For `CCOC(=O)C1=C(CN2CCN3C(=S)N(CC(CC)C(=O)O)CC3C2)NC(c2nccs2)=N[C@H]1c1cccc(F)c1C` (stereo partly drawn) [Compound 17, 2-((7-(((S)-5-(ethoxycarbonyl)-6-(3-fluoro-2-methylphenyl)-2-(thiazol-2-yl)-3,6-dihydropyrimidin-4-yl)methyl)-3-thioxohexahydroimidazo[1,5-a]pyrazin-2(3H)-yl)methyl)butanoic acid], in that order: 5.6 nM and 13200 nM.
Turning to `CCOC(=O)C1=C(CN2CCN3C(=S)N(CC4(C(=O)O)CC4)CC3C2)NC(c2nccs2)=NC1c1cccc(F)c1Cl` (stereo not shown) [Compound 5, 1-((7-((6-(2-Chloro-3-fluorophenyl)-5-(ethoxycarbonyl)-2-(thiazol-2-yl)-3,6-dihydropyrimidin-4-yl)methyl)-3-thioxohexahydroimidazo[1,5-a]pyrazin-2(3H)-yl)methyl)cyclopropanecarboxylic acid], the EC50 in the series on HBV was found to be 1.7 nM. In series [1], the CC50 at 6 days amounted to 11800 nM.
Consider `CCOC(=O)C1=C(CN2CCN3C(=S)N(CC(C)(C)C(=O)O)C[C@@H]3C2)NC(c2nccs2)=N[C@@H]1c1ccc(F)c(F)c1C` (single isomer, unassigned) [Compound 15A, 3-(7-((6-(3,4-Difluoro-2-methylphenyl)-5-(ethoxycarbonyl)-2-(thiazol-2-yl)-3,6-dihydropyrimidin-4-yl)methyl)-3-thioxohexahydroimidazo[1,5-a]pyrazin-2(3H)-yl)-2,2-dimethylpropanoic acid], for which the EC50 with HBV was found to be 4.6 nM. In series [1], this molecule displayed a CC50 at 6 days of 25600 nM.
`CCOC(=O)C1=C(CN2CCN3C(=S)N(C)C[C@@H]3[C@H]2C(=O)O)NC(c2nccs2)=N[C@H]1c1cccc(F)c1Cl` (single isomer, unassigned) [Compound 19B, (trans)-7-((6-(2-chloro-3-fluorophenyl)-5-(ethoxycarbonyl)-2-(thiazol-2-yl)-3,6-dihydropyrimidin-4-yl)methyl)-2-methyl-3-thioxooctahydro-imidazo[1,5-a]pyrazine-8-carboxylic acid]: the EC50 in the series with HBV came out at 1.8 nM. In series [1], the CC50 at 6 days is 51200 nM.
Regarding `CCOC(=O)C1=C(CN2CCN3C(=S)N(CC(C)(C)C(=O)O)C[C@@H]3C2)NC(c2ncoc2C)=N[C@H]1c1ccc(F)cc1Cl` (single isomer, unassigned) [Compound 33A, 3-(7-((6-(2-Chloro-4-fluorophenyl)-5-(ethoxycarbonyl)-2-(5-methyloxazol-4-yl)-3,6-dihydropyrimidin-4-yl)methyl)-3-thioxohexahydroimidazo[1,5-a]pyrazin-2(3H)-yl)-2,2-dimethylpropanoic acid], the EC50 in the series with HBV came to 12 nM. Further, in series [1], the CC50 at 6 days was 37800 nM.
The matching figures for `CCOC(=O)C1=C(CN2CCN3C(=S)N(CC4(C(=O)O)CC4)C[C@@H]3C2)NC(c2nccs2)=N[C@H]1c1cccc(F)c1Cl` (single isomer, unassigned) [Compound 18B, 1-((7-((6-(2-chloro-3-fluorophenyl)-5-(ethoxycarbonyl)-2-(thiazol-2-yl)-3,6-dihydropyrimidin-4-yl)methyl)-3-thioxohexahydroimidazo[1,5-a]pyrazin-2(3H)-yl)methyl)cyclopropane-1-carboxylic acid]: 1.5 nM and 13000 nM.
For `CCOC(=O)C1=C(CN2CCN3C(=S)N(CCC(C)(C)C(=O)O)CC3C2)NC(c2nccs2)=N[C@H]1c1cccc(F)c1C` (stereo partly drawn) [Compound 28, 4-(7-(((S)-5-(ethoxycarbonyl)-6-(3-fluoro-2-methylphenyl)-2-(thiazol-2-yl)-3,6-dihydropyrimidin-4-yl)methyl)-3-thioxohexahydroimidazo[1,5-a]pyrazin-2(3H)-yl)-2,2-dimethylbutanoic acid], in that order: 5.8 nM and 10900 nM.
For `CCOC(=O)C1=C(CN2CCN3C(=S)N(CC(C)(C)C(=O)O)CC3C2)NC(c2ncoc2C)=NC1c1cccc(F)c1C` (single isomer, unassigned) [Compound 26A, 3-(7-((5-(Ethoxycarbonyl)-6-(3-fluoro-2-methylphenyl)-2-(5-methyloxazol-4-yl)-3,6-dihydropyrimidin-4-yl)methyl)-3-thioxohexahydroimidazo[1,5-a]pyrazin-2(3H)-yl)-2,2-dimethylpropanoic acid], in that order: 13.2 nM and 26200 nM.
For `COC(=O)C1=C(CN2CCN3C(=S)N(CC(C)(C)C(=O)O)C[C@@H]3C2)NC(c2nccs2)=N[C@H]1c1cccc(F)c1Cl` (single isomer, unassigned) [Compound 20A, 3-(7-((6-(2-chloro-3-fluorophenyl)-5-(methoxycarbonyl)-2-(thiazol-2-yl)-3,6-dihydropyrimidin-4-yl)methyl)-3-thioxohexahydroimidazo[1,5-a]pyrazin-2(3H)-yl)-2,2-dimethylpropanoic acid], the EC50 in the series on HBV was found to be 3.5 nM. The same molecule came in with a CC50 at 6 days in series [1] of 16400 nM.
In the case of `CCOC(=O)C1=C(CN2CCN3C(=S)N(CC4(C(=O)O)CCC4)CC3C2)NC(c2nccs2)=N[C@H]1c1cccc(F)c1C` (single isomer, unassigned) [Compound 29B], the EC50 with HBV worked out at 1.5 nM. This molecule gave a CC50 at 6 days in series [1] of 11200 nM.
